In article PMC5527824 (Frontiers in bioscience (Scholar edition), 2015):
Values joined by “and” are separate entries in the source; they are usually repeats but may differ in a detail not shown here. Equal values may be shown once. Read-outs that look alike come from different tables or passages of the source.

Assays:
[1] = rat, in vivo, po; cited from earlier work
Akita mice [2] = test: Ins2^Akita mouse model of type 1 diabetes; format: in vivo; details: 0.05% in diet for 18 weeks
[3] = molecular target: 5-LOX from human peripheral blood mononuclear leukocytes (PBML) (Homo sapiens, UniProt P09917); test: 5-LOX inhibition; format: biochemical; details: Fisetin IC50, 5-LOX
Sequence of 5-LOX from human peripheral blood mononuclear leukocytes (PBML) (P09917 whole entry): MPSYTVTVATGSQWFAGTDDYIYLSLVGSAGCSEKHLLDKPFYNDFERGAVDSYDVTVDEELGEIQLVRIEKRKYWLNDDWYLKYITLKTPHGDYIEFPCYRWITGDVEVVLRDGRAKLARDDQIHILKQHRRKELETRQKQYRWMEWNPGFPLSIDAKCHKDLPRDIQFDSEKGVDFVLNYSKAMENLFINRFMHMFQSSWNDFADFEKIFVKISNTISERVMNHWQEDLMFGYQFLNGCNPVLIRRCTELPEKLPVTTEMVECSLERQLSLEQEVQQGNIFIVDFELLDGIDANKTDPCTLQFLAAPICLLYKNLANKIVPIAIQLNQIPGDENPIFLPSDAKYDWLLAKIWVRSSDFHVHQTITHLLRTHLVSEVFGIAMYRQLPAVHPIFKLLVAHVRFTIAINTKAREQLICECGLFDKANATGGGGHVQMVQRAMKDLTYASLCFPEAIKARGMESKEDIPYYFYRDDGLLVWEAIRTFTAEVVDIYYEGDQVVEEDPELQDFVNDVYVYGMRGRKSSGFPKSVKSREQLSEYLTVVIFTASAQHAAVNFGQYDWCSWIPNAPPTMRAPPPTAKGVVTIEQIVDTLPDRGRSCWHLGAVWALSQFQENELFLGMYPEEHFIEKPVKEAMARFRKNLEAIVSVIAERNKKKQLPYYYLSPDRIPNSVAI

COX1 (Human platelets) = COX1 (Human platelets) (Homo sapiens, UniProt P23219); test: COX1 inhibition; format: biochemical
COX2 (Human recombinant) = COX2 (Human recombinant) (Homo sapiens, UniProt P35354); test: COX2 inhibition; format: biochemical
Sequence of COX2 (Human recombinant) (P35354 18-604): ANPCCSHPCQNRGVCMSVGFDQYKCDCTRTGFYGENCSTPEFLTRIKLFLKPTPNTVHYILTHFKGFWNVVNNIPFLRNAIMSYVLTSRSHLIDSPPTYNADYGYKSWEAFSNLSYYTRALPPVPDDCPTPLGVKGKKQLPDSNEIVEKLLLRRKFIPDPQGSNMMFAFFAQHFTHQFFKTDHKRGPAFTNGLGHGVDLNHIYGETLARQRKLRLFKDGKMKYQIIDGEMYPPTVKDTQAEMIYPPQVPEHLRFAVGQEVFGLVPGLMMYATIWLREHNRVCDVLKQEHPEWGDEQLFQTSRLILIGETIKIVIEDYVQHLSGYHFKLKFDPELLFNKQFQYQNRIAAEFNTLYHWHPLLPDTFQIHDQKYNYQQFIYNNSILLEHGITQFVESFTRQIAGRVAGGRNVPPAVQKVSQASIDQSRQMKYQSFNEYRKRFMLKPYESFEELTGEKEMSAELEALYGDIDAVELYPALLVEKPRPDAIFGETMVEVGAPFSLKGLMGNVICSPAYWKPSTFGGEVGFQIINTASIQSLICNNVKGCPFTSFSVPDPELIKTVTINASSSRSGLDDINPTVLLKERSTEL

[4] = pharmacokinetics in mice, oral; format: in vivo, mouse; details: oral 50 mg/kg bw, unpublished results
[5] = short-term toxicity study in mice; format: in vivo; details: oral 2000 mg/kg bw, examined for 48 hr, outside laboratory
hERG = hERG (Homo sapiens, UniProt Q12809); test: hERG activity; details: at concentrations up to 10 μM, the highest concentration tested; unpublished results
Sequence of hERG (Q12809 whole entry): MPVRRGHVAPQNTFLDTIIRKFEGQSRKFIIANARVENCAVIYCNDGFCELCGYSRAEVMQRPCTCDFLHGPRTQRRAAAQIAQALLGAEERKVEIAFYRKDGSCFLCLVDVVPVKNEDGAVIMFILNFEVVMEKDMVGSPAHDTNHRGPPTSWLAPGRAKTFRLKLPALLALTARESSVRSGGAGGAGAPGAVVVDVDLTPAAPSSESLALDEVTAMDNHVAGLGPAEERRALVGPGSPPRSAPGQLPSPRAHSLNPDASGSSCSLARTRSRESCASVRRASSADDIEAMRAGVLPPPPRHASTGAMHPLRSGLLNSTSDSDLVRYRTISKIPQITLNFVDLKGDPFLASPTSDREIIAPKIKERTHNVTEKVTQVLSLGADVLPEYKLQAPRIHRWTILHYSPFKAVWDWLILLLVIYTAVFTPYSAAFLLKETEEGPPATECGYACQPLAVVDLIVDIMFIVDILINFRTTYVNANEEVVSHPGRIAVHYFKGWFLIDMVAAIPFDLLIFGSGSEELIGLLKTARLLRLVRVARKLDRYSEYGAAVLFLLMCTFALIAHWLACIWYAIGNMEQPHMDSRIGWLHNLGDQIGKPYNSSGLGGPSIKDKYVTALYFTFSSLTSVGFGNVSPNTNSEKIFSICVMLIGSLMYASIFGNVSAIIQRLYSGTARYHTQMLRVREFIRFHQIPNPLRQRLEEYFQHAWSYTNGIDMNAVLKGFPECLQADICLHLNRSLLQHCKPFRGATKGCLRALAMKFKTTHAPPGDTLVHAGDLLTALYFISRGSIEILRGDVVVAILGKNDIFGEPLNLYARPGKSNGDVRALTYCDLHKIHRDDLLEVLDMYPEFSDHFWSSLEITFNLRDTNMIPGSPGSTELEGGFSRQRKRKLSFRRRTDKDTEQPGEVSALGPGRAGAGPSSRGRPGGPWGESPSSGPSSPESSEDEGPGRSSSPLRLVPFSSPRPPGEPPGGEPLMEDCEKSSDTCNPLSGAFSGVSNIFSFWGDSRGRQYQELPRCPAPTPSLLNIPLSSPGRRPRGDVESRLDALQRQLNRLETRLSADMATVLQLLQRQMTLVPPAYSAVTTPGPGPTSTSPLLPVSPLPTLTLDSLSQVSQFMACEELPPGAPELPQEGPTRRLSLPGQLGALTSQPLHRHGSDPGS

cytochrome P450 3A4 = cytochrome P450 3A4 (Homo sapiens, UniProt P08684); test: cytochrome P450 3A4 inhibition; format: in vitro ADME; details: at concentrations up to 10 μM; unpublished results
Sequence of cytochrome P450 3A4 (P08684 whole entry): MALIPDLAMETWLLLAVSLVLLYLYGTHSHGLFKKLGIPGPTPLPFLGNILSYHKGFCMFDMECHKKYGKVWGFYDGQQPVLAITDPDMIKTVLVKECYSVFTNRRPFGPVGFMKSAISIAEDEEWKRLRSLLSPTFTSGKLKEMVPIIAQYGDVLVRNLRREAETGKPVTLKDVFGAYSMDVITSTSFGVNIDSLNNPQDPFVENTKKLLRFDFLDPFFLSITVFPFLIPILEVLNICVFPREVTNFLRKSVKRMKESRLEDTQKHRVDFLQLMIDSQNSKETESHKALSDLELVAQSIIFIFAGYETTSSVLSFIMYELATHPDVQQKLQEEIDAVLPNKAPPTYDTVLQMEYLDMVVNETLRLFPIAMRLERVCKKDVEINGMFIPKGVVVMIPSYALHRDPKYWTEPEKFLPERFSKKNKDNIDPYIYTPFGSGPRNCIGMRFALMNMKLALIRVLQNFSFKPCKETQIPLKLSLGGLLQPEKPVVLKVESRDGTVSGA

cytochrome P450 2C9 = cytochrome P450 2C9 (Homo sapiens, UniProt P11712); test: cytochrome P450 2C9 inhibition; format: in vitro ADME; details: at concentrations up to 10 μM; unpublished results
Sequence of cytochrome P450 2C9 (P11712 whole entry): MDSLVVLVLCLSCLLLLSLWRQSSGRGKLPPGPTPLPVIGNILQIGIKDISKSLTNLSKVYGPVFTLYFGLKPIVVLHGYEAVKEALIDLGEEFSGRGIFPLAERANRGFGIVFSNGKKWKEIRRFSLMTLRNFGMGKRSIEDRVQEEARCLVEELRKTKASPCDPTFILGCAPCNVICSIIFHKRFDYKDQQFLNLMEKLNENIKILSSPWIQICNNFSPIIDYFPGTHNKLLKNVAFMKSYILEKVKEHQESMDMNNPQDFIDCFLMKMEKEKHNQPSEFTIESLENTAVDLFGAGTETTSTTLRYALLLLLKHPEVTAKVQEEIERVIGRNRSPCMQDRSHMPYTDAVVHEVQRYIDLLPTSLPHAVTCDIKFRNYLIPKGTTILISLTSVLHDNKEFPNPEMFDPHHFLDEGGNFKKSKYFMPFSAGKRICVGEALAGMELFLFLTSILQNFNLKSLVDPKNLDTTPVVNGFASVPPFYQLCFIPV

cytochrome P450 2D6 = cytochrome P450 2D6 (Homo sapiens, UniProt P10635); test: cytochrome P450 2D6 inhibition; format: in vitro ADME; details: at concentrations up to 10 μM; unpublished results
Sequence of cytochrome P450 2D6 (P10635 whole entry): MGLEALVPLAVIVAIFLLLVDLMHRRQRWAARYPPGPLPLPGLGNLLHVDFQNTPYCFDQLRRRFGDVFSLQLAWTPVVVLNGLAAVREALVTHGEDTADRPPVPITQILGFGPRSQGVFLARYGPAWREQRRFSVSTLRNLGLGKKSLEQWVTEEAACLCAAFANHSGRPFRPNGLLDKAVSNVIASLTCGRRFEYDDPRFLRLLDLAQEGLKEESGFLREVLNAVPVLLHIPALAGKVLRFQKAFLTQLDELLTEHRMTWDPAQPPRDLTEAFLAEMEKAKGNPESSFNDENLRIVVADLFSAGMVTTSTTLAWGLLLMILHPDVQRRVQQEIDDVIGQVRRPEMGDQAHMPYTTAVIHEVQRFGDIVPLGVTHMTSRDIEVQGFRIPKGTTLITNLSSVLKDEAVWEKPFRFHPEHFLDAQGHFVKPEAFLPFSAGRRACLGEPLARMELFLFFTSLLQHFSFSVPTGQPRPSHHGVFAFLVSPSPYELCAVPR

nerve cell = details: of ~30 flavonoids tested; cited from earlier work
PC12 cells = details: of ~30 flavonoids tested; cited from earlier work
[6] = test system: APPswe/PS1dE9 double transgenic AD mice; details: 0.05% in food, cited from earlier work
[7] = test system: APPswe/PS1dE9 double transgenic AD mice; details: AD mice 12 months of age, 0.05% in food; cited from earlier work
[8] = test system: APPswe/PS1dE9 double transgenic AD mice; details: AD mice 12 months of age, 0.05% in food; cited from earlier work; remark: listed apart in the source
[9] = test system: scopolamine-induced memory impairment in mice; details: cited from earlier work
PC12/Htt^Q103 cells = details: 10 μM, 24 hr after induction of Httex1-103QP; cited from earlier work
R6/2 mouse = details: R6/2 mice, cited from earlier work
[10] = test system: mouse HT22 hippocampal nerve cell line; details: read-out: EC50, protection from IAA-induced death; HT22 cells; cited from earlier work
tMCAO in mice [11] = details: cited from earlier work
tMCAO in mice [12] = details: cited from earlier work; for intracellular TNF-α production in macrophages / TNF-α–producing microglia: brain
[13] = test system: rodent model of depression; details: oral administration; cited from earlier work
[14] = test system: rodent model of depression; details: oral administration; cited from earlier work; remark: listed apart in the source
monoamine oxidase A = details: stated as possible mechanism; cited from earlier work
Akita mice [15] = details: cited from earlier work
[16] = cited from earlier work
liver microsomes = details: ferrous sulfate/ascorbate; cited from earlier work
[17] = test tube assays; cited from earlier work
[18] = cited from earlier work; remark: listed apart in the source
Nrf2 = details: basal half-life ~15 min; cited from earlier work
ATF4 = details: basal half-life ~10 min; cited from earlier work
[19] = test system: mouse hippocampal HT22 cells; details: cited from earlier work
[20] = test system: aluminum chloride toxicity in mice; details: oral 15 mg/kg bw; cited from earlier work
[21] = test system: BV-2 microglial cell line; details: BV-2 cells; cited from earlier work
[22] = test system: human lung adenocarcinoma cell line H1299; details: H1299 cells; cited from earlier work
[23] = test system: NF-κB coactivator CBP/p300; details: human monocytes; cited from earlier work
RAW264.7 macrophages = details: RAW264.7, via increased MKP-1 levels; cited from earlier work
[24] = test system: mouse N9 microglial cells; details: cited from earlier work
[25] = test system: APPswe/PS1dE9 double transgenic AD mice; details: cited from earlier work
12-LOX = details: fish gill; cited from earlier work
5-LOX = details: stimulated peritoneal leukocytes; cited from earlier work
15-LOX = details: rabbit reticulocytes; cited from earlier work
Aβ = details: cell-free assay system; cited from earlier work
HT22 cells = details: cited from earlier work
proteasome = details: cited from earlier work
[26] = rats, intravenous and oral administration; cited from earlier work
[27] = mouse, intravenous 223 mg/kg bw; cited from earlier work
[28] = 0.05% in diet for 9 months (~25 mg/kg bw), vs control; cited from earlier work
[29] = molecular target: 15-LOX from rabbit reticulocytes (Oryctolagus cuniculus, UniProt P12530); test: 15-LOX inhibition; details: Fisetin IC50, 15-LOX
Sequence of 15-LOX from rabbit reticulocytes (P12530 whole entry): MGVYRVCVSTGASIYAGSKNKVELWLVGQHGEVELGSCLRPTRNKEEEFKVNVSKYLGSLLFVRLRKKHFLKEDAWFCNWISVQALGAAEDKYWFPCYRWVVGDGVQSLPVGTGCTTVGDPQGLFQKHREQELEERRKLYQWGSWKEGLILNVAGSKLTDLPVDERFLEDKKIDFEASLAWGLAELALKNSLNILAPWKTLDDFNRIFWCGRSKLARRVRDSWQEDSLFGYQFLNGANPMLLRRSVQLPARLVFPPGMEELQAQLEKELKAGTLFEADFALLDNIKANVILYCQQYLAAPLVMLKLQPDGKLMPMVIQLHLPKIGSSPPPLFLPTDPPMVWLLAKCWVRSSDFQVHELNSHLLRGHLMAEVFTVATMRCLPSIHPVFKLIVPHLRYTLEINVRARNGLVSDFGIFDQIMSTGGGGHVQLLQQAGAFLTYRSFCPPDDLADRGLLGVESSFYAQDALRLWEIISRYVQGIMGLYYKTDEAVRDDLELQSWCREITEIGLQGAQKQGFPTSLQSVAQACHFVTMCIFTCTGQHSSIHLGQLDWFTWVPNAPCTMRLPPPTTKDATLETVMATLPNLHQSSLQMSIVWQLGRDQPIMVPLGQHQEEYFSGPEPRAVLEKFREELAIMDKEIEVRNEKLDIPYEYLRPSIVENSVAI

[30] = cited from earlier work; remark: listed apart in the source

For `O=c1cc(-c2ccccc2)oc2cc(O)c(O)c(O)c12` [baicalein], the “levels of free and conjugated flavonoid” value [1] is listed as at most 1000 nM.

For `O=c1c(O)c(-c2ccc(O)c(O)c2)oc2cc(O)ccc12` [fisetin, 3,3′,4′,7-tetrahydroxyflavone], the “decrease in motor nerve conduction velocity” value (Akita mice [2]) was “ameliorated”, the “increase in hind paw thermal latency” value (Akita mice [2]) was “prevented” and the IC50 [3] was 585 nM and 580 nM. The IC50 (COX1 (Human platelets)) was over 10000 nM, the IC50 (COX2 (Human recombinant)) was over 10000 nM and the “half-life of free fisetin” value [4] was “very short half-life”. The short-term toxicity [5] was “No indications of toxicity”, the Ames test (Ames test) was “negative” and the “inhibition of hERG activity” value (hERG) was “no inhibition”. The “inhibition of cytochrome P450 3A4 activity” value (cytochrome P450 3A4) was “no inhibitory effects”, the “inhibition of cytochrome P450 2C9 activity” value (cytochrome P450 2C9) was “no inhibitory effects” and the “inhibition of cytochrome P450 2D6 activity” value (cytochrome P450 2D6) was “no inhibitory effects”. The “maintenance of GSH levels in the presence of oxidative stress” value (nerve cell) was “able to maintain GSH levels”, the “differentiation of PC12 cells (neurotrophic activity)” value (“differentiation of PC12 cells” below) (PC12 cells) was “promoting the differentiation of PC12 cells” and the swim speeds [6] was “no effect”. The “MWM probe test, memory (time in platform quadrant)” value ([6]; AD mice 9 months of age) was “clear evidence of memory improvement”, the “escape latency, hidden platform day 2” value [7] was “indistinguishable from that of the wild type mice” and the “time in the open arms (disinhibition)” value [8] was “reversed”. The “loss of total GSH from the cortex” value ([9]; scopolamine-treated mice) was “prevent the loss of total GSH”, the “rescue of memory deficit induced by scopolamine” value ([9]; single oral dose of 40 mg/kg bw) was “as effective as donepezil” and the protection of cells (PC12/Htt^Q103 cells) was “equal or greater amount of protection”. For the same compound, the median life span (R6/2 mouse; 0.05% in food from ~6 weeks of age, control diet 104 days) was 139 days, the rotorod performance (R6/2 mouse; 0.05% in food, at 9, 11 and 13 weeks (p < 0.01)) was “improved” and the “increase of median life span” value (R6/2 mouse; 0.05% in food, vs control diet) was ~ 30%. The EC50 [10] was 3000 nM, the infarct size (tMCAO in mice [11]; 25 mg/kg i.p. 20 min before onset of ischemia, placebo 56 μl) was 49 µL and the infarct size (tMCAO in mice [11]; 50 mg/kg i.p. 20 min before onset of ischemia, placebo 56 μl) was 30 µL. The infarct size (tMCAO in mice [11]; 50 mg/kg i.p. three hours after onset of ischemia, placebo 42 μl) was 27 µL, the “leukocytes infiltrating the brain” value (tMCAO in mice [12]; 50 mg/kg bw, day 3, mean ± SD, placebo 179,252 ± 23,389) was 93,045 ± 46,963 cells per ischemic hemisphere and the “numbers of microglia in the ipsilesional hemisphere” value (tMCAO in mice [12]; 50 mg/kg bw, day 3 after stroke, vs placebo) was “no significant differences”. For the same compound, the “intracellular TNF-α production in macrophages” value (tMCAO in mice [12]; day 3, placebo 24.6%) was 2.9%, the “TNF-α–producing microglia” value (tMCAO in mice [12]; day 3, placebo 30.4%) was 17.3% and the “TNF-α–producing microglia” value (tMCAO in mice [12]; day 7, placebo 31.9%) was 26.8%. For the same compound, the “intracellular TNF-α production in macrophages” value (tMCAO in mice [12]; day 7, placebo 33.8%) was 13.9%, the “TNF-α production in macrophages and DCs isolated from spleen” value (tMCAO in mice [12]; day 3 and day 7 post ischemia, vs placebo) was “did not show any differences” and the “most effective dose at reducing immobility time” value [13] was 20 mg/kg bw. The “most effective dose at reducing immobility time” value [14] was 20 mg/kg bw, the “inhibition of monoamine oxidase A” value (monoamine oxidase A) was “mild inhibition” and the “elevated blood glucose and HbA1c” value (Akita mice [15]; 0.05% in food (25–40 mg/kg bw daily), 6 to 24 weeks) was “not affected”. For the same compound, the “open field test, distance traveled and time ambulatory (anxiety-related symptoms)” value (Akita mice [15]; 0.05% in food) was “restored to near normal values”, the weight loss (Akita mice [15]; 0.05% in food) was “not altered” and the “Trolox equivalent antioxidant capacity (TEAC) value” [16] was ~ 3. For the same compound, the “concentration decreasing lipid peroxidation” value (liver microsomes) was 1.35 µM, the “concentration at which pro-oxidant effects are seen” value [17] was at least 50 µM and the chelation of iron [18] was “efficient chelation”. The “increase of Nrf2 half-life” value (Nrf2) was ~ 2 fold, the “increase of ATF4 half-life” value (ATF4) was ~ 2 fold and the “reduction in the ability of fisetin to maintain cellular GSH levels” value ([19]; siRNA to ATF4, basal and glutamate-induced oxidative stress conditions) was ~ 50%. The “effect of Nrf2 reduction on the ability of fisetin to maintain GSH levels” value ([19]; siRNA to Nrf2, basal conditions) was “no effect”, the “reduction in the ability of fisetin to maintain GSH” value ([19]; siRNA to Nrf2, in the presence of oxidative stress) was ~ 30% and the “loss of total GSH from cortex and hippocampus” value [20] was “greatly reduce the loss of total GSH”. The “LPS-induced nitric oxide production, TNF-α, PGE2 and iNOS/COX2 expression” value [21] was “blocked”, the “NF-κB-dependent reporter gene expression and protein expression” value [22] was “reduced” and the “activity of CBP/p300” value [23] was “suppress”. The “p38 MAPK and JNK activation” value (RAW264.7 macrophages) was “suppresses”, the “reduction of iNOS expression” value ([24]; 10 μM, following LPS stimulation (p<0.001)) was 91% and the “IκB, JNK and c-Jun phosphorylation” value ([24]; LPS-stimulated murine microglia) was “significantly reduced”. The “LPS-induced nitric oxide and TNF-α production” value ([24]; N9 cells, vs placebo) was “significant inhibition”, the “production of PGD2, PGJ2 and 15d-PGD2” value ([25]; AD mice study) was “increased production” and the “ERK phosphorylation in the hippocampus” value ([25]; AD mice treated with fisetin) was “increases in ERK phosphorylation”. The “AD-increased production of thromboxanes TXB1 and TXB2” value ([25]; AD mice, 0.05% in food) was “partly prevented”, the “astrocyte area and intensity of GFAP staining in hippocampus” value ([25]; AD mice, 0.05% in food) was “largely reversed” and the “brain levels of 5-HETE and 12-HETE” value ([25]; AD mice) was “significantly reduce”. For the same compound, the “Aβ1–40 level in RIPA soluble fraction of hippocampus” value ([25]; ELISA, Aβ1–42 not reduced) was “significantly reduce”, the “Aβ plaque loads in brain sections” value ([25]; fisetin-fed vs control AD mice) was “No significant differences” and the “inhibition of 12-LOX activity” value (12-LOX) was “effective inhibitor”. The “inhibition of 5-LOX activity” value (5-LOX) was “effective inhibitor”, the “inhibition of 15-LOX activity” value (15-LOX) was “effective inhibitor” and the Aβ fibril formation (Aβ) was “inhibit Aβ fibril formation”. For the same compound, the “extracellular Aβ toxicity” value (HT22 cells) was “prevents extracellular Aβ toxicity”, the proteasome activity (proteasome) was “increase proteasome activity” and the “t1/2 of free fisetin in serum” value [26] was 2.7 min. The “t1/2 of free fisetin in serum” value [27] was 3.12 h, the body weights [28] was “No significant differences” and the IC50 [29] was 341 nM and 340 nM.

In the case of `COc1cc(-c2oc3cc(O)ccc3c(=O)c2O)ccc1O` [geraldol, 3,4′,7-trihydroxy-3′-methoxyflavone], the “activity in several biological assays” value [30] is given as “as active as fisetin”.

For `COc1cc(-c2oc3cc(O)cc(O)c3c(=O)c2O)ccc1O` [isorhamnetin], the “differentiation of PC12 cells” value (PC12 cells) is given as “some differentiation-inducing activity”.

In the case of `O=c1cc(-c2ccc(O)c(O)c2)oc2cc(O)cc(O)c12` [luteolin], the “differentiation of PC12 cells” value (PC12 cells) is listed as “some differentiation-inducing activity”.

For `O=c1c(O)c(-c2ccc(O)c(O)c2)oc2cc(O)cc(O)c12` [quercetin, reference compound], the “maintenance of GSH levels in the presence of oxidative stress” value (nerve cell) is listed as “able to maintain GSH levels” and the “differentiation of PC12 cells” value (PC12 cells) is listed as “some differentiation-inducing activity”.
